Test results reported in PMC5218480 (PLoS ONE, 2017).

System: MV-4-11 cells
Assay: Gene expression microarray analysis (Affymetrix PrimeView) and GSEA
Assay type: cell-based, human
Parameters: RFU PODN (11730768_x_at) / Fold change /veh PODN (11730768_x_at) / RFU LINC00158 (11744669_a_at) / Fold change /veh LINC00158 (11744669_a_at) / RFU DUSP10 (11751237_a_at) / Fold change /veh DUSP10 (11751237_a_at) / RFU ID3 (11757404_x_at) / Fold change /veh ID3 (11757404_x_at) / RFU PLEKHG5 (11737974_s_at) / Fold change /veh PLEKHG5 (11737974_s_at) / RFU LRRC4B (11730491_at) / Fold change /veh LRRC4B (11730491_at) / RFU GIMAP4 (11747438_a_at) / Fold change /veh GIMAP4 (11747438_a_at) / RFU KRT8 (11758183_x_at) / Fold change /veh KRT8 (11758183_x_at) / RFU CNN1 (11734310_a_at) / Fold change /veh CNN1 (11734310_a_at) / RFU VPS37D (11726825_at) / Fold change /veh VPS37D (11726825_at) / RFU C10orf10 (11716522_x_at) / Fold change /veh C10orf10 (11716522_x_at) / RFU KIR2DL2 /// KIR2DL4 /// KIR2DL5A /// KIR2DL5B /// KIR2DS1 /// KIR2DS2 /// KIR2DS3 /// KIR2DS4 /// KIR3DL3 /// KIR3DL3 /// KIR3DS1 (11738374_at) / Fold change /veh KIR2DL2 /// KIR2DL4 /// KIR2DL5A /// KIR2DL5B /// KIR2DS1 /// KIR2DS2 /// KIR2DS3 /// KIR2DS4 /// KIR3DL3 /// KIR3DL3 /// KIR3DS1 (11738374_at) / RFU C1QL1 (11718748_at) / Fold change /veh C1QL1 (11718748_at) / RFU TMPRSS4 (11747572_a_at) / Fold change /veh TMPRSS4 (11747572_a_at) / RFU HAMP (11756126_x_at) / Fold change /veh HAMP (11756126_x_at) / RFU RNFT2 (11725882_a_at) / Fold change /veh RNFT2 (11725882_a_at) / RFU NR4A2 (11747474_a_at) / Fold change /veh NR4A2 (11747474_a_at) / RFU ABCC12 (11746883_a_at) / Fold change /veh ABCC12 (11746883_a_at) / RFU TMEM136 (11760407_x_at) / Fold change /veh TMEM136 (11760407_x_at) / RFU CLDN22 /// WWC2 (11732394_at) / Fold change /veh CLDN22 /// WWC2 (11732394_at) / RFU HLA-DPB1 (11760878_x_at) / Fold change /veh HLA-DPB1 (11760878_x_at) / RFU SPINT1 (11716480_a_at) / Fold change /veh SPINT1 (11716480_a_at) / RFU GAP43 (11754022_s_at) / Fold change /veh GAP43 (11754022_s_at) / RFU A4GNT (11735810_at) / Fold change /veh A4GNT (11735810_at) / RFU PRB3 (11715151_x_at) / Fold change /veh PRB3 (11715151_x_at) / RFU TUBB4B (11761932_at) / Fold change /veh TUBB4B (11761932_at) / RFU CAPN14 (11732068_a_at) / Fold change /veh CAPN14 (11732068_a_at) / RFU TMCC2 (11721928_a_at) / Fold change /veh TMCC2 (11721928_a_at) / RFU IRGQ (11745062_a_at) / Fold change /veh IRGQ (11745062_a_at) / RFU FAM174B (11720279_a_at) / Fold change /veh FAM174B (11720279_a_at) / RFU TMPRSS4 (11748680_a_at) / Fold change /veh TMPRSS4 (11748680_a_at) / RFU FAM212B (11763350_a_at) / Fold change /veh FAM212B (11763350_a_at) / RFU PLEKHG5 (11743358_a_at) / Fold change /veh PLEKHG5 (11743358_a_at) / RFU ZSCAN30 (11745921_a_at) / Fold change /veh ZSCAN30 (11745921_a_at) / RFU CMKLR1 (11741424_a_at) / Fold change /veh CMKLR1 (11741424_a_at) / RFU LOC101060620 /// MAPK8IP1 (11723275_at) / Fold change /veh LOC101060620 /// MAPK8IP1 (11723275_at) / RFU SPTSSB (11747773_x_at) / Fold change /veh SPTSSB (11747773_x_at) / RFU PRSS12 (11739890_at) / Fold change /veh PRSS12 (11739890_at) / RFU BIN1 (11741810_x_at) / Fold change /veh BIN1 (11741810_x_at) / RFU WNT11 (11732464_a_at) / Fold change /veh WNT11 (11732464_a_at) / RFU C10orf10 (11716521_a_at) / Fold change /veh C10orf10 (11716521_a_at) / RFU C5orf56 (11738089_at) / Fold change /veh C5orf56 (11738089_at) / RFU CYB561 (11721691_x_at) / Fold change /veh CYB561 (11721691_x_at) / RFU ANKRD19P (11752326_a_at) / Fold change /veh ANKRD19P (11752326_a_at) / RFU OR2T12 /// OR2T33 /// OR2T8 (11738714_s_at) / Fold change /veh OR2T12 /// OR2T33 /// OR2T8 (11738714_s_at) / RFU VCAN (11748164_a_at) / Fold change /veh VCAN (11748164_a_at) / RFU JSRP1 (11732532_at) / Fold change /veh JSRP1 (11732532_at) / RFU KRTAP10-11 (11738290_x_at) / Fold change /veh KRTAP10-11 (11738290_x_at) / RFU MYO3A (11730013_a_at) / Fold change /veh MYO3A (11730013_a_at) / RFU EBF3 (11725865_a_at) / Fold change /veh EBF3 (11725865_a_at) / RFU CAMK2N1 (11719241_x_at) / Fold change /veh CAMK2N1 (11719241_x_at) / RFU C5orf56 (11738088_a_at) / Fold change /veh C5orf56 (11738088_a_at) / RFU OLFML3 (11715873_a_at) / Fold change /veh OLFML3 (11715873_a_at) / RFU LOC100653217 /// NTM (11731650_a_at) / Fold change /veh LOC100653217 /// NTM (11731650_a_at) / RFU MAPK11 (11762145_a_at) / Fold change /veh MAPK11 (11762145_a_at) / RFU FIZ1 (11724087_x_at) / Fold change /veh FIZ1 (11724087_x_at) / RFU OASL (11726364_x_at) / Fold change /veh OASL (11726364_x_at) / RFU SOX15 (11748057_x_at) / Fold change /veh SOX15 (11748057_x_at) / RFU CD79A (11719716_a_at) / Fold change /veh CD79A (11719716_a_at) / RFU HIST1H1D (11736915_at) / Fold change /veh HIST1H1D (11736915_at) / RFU CASKIN2 (11723855_a_at) / Fold change /veh CASKIN2 (11723855_a_at) / RFU LOC730098 (11760151_x_at) / Fold change /veh LOC730098 (11760151_x_at) / RFU OR4N2 (11742367_at) / Fold change /veh OR4N2 (11742367_at) / RFU PRRT2 (11749266_a_at) / Fold change /veh PRRT2 (11749266_a_at) / RFU SNX32 (11753110_a_at) / Fold change /veh SNX32 (11753110_a_at) / RFU CDHR5 (11726645_a_at) / Fold change /veh CDHR5 (11726645_a_at) / RFU RCAN1 (11760418_a_at) / Fold change /veh RCAN1 (11760418_a_at) / RFU FAM167A (11723789_a_at) / Fold change /veh FAM167A (11723789_a_at) / RFU FAM26E (11764081_at) / Fold change /veh FAM26E (11764081_at) / RFU ISYNA1 (11749810_s_at) / Fold change /veh ISYNA1 (11749810_s_at) / RFU ACY1 (11761880_at) / Fold change /veh ACY1 (11761880_at) / RFU 11764098_at / Fold change /veh 11764098_at / RFU SAMD14 (11745864_x_at) / Fold change /veh SAMD14 (11745864_x_at) / RFU NPB (11741838_a_at) / Fold change /veh NPB (11741838_a_at) / RFU TMPRSS6 (11731388_a_at) / Fold change /veh TMPRSS6 (11731388_a_at) / RFU KRTAP10-2 (11738614_at) / Fold change /veh KRTAP10-2 (11738614_at) / RFU ARHGAP8 /// PRR5-ARHGAP8 (11727945_x_at) / Fold change /veh ARHGAP8 /// PRR5-ARHGAP8 (11727945_x_at) / RFU KRTAP5-7 /// NADSYN1 (11734609_at) / Fold change /veh KRTAP5-7 /// NADSYN1 (11734609_at) / RFU RASL12 (11751679_a_at) / Fold change /veh RASL12 (11751679_a_at) / RFU CDKN2B (11736163_a_at) / Fold change /veh CDKN2B (11736163_a_at) / RFU PRF1 (11729649_at) / Fold change /veh PRF1 (11729649_at) / RFU, ZNF638 /// ZNF638-IT1 / Fold change vs veh, ZNF638 /// ZNF638-IT1 / RFU, PANK3 / Fold change vs veh, PANK3 / RFU, SH3YL1 / Fold change vs veh, SH3YL1 / RFU, ZEB2 / Fold change vs veh, ZEB2 / RFU, NRIP1 / Fold change vs veh, NRIP1 / RFU, PTTG1IP / Fold change vs veh, PTTG1IP / RFU, CAPN2 / Fold change vs veh, CAPN2 / RFU, MED14 / Fold change vs veh, MED14 / RFU, SNORA58 / Fold change vs veh, SNORA58 / RFU, C1orf63 / Fold change vs veh, C1orf63 / RFU, LRRFIP1 / Fold change vs veh, LRRFIP1 / RFU, NDUFAF7 / Fold change vs veh, NDUFAF7 / RFU, SLC12A2 / Fold change vs veh, SLC12A2 / RFU, IBTK / Fold change vs veh, IBTK / RFU, ESF1 / Fold change vs veh, ESF1 / Fold change vs veh, TMEM50B / RFU, TAOK1 / Fold change vs veh, TAOK1 / RFU, ACBD3 / Fold change vs veh, ACBD3 / RFU, TMA16 / Fold change vs veh, TMA16 / RFU, RWDD3 / Fold change vs veh, RWDD3 / RFU, BCAT1 / Fold change vs veh, BCAT1 / RFU, EDEM3 / Fold change vs veh, EDEM3 / RFU, TMEM33 / Fold change vs veh, TMEM33 / RFU, WDR75 / Fold change vs veh, WDR75 / RFU, AHCTF1 / Fold change vs veh, AHCTF1 / RFU, TFRC / Fold change vs veh, TFRC / RFU, ZDHHC17 / Fold change vs veh, ZDHHC17 / RFU, NOM1 / Fold change vs veh, NOM1 / RFU, ARL8B / Fold change vs veh, ARL8B / RFU, ZBTB11 / Fold change vs veh, ZBTB11 / RFU, TAMM41 / Fold change vs veh, TAMM41 / RFU, KIAA1704 /// LOC100996395 / Fold change vs veh, KIAA1704 /// LOC100996395 / RFU, ING1 / Fold change vs veh, ING1 / RFU, TRMT61B / Fold change vs veh, TRMT61B / RFU, FUBP3 / Fold change vs veh, FUBP3 / RFU, TP53 / Fold change vs veh, TP53 / RFU, TNKS2 / Fold change vs veh, TNKS2 / RFU, ZFP14 / Fold change vs veh, ZFP14 / RFU, ACTR2 / Fold change vs veh, ACTR2 / RFU, PPP3R1 / Fold change vs veh, PPP3R1 / RFU, PIK3R1 / Fold change vs veh, PIK3R1 / RFU, HNRNPA1 / Fold change vs veh, HNRNPA1 / RFU, RNF170 / Fold change vs veh, RNF170 / RFU, ZNF28 / Fold change vs veh, ZNF28 / RFU, RNGTT / Fold change vs veh, RNGTT / RFU, OGT / Fold change vs veh, OGT / RFU, BRD1 / Fold change vs veh, BRD1 / RFU, MARS / Fold change vs veh, MARS / RFU, ZNF655 / Fold change vs veh, ZNF655 / RFU, FAHD1 / Fold change vs veh, FAHD1 / RFU, BDP1 / Fold change vs veh, BDP1 / RFU, LRRCC1 / Fold change vs veh, LRRCC1 / RFU, ARID1A / Fold change vs veh, ARID1A / RFU, ZNF146 / Fold change vs veh, ZNF146 / RFU, ZNF330 / Fold change vs veh, ZNF330 / RFU, GPN3 / Fold change vs veh, GPN3 / RFU, C9orf123 / Fold change vs veh, C9orf123 / RFU, N4BP2L2 / Fold change vs veh, N4BP2L2 / RFU, ARFIP1 / Fold change vs veh, ARFIP1 / RFU, FAM179B / Fold change vs veh, FAM179B / RFU, BCL10 / Fold change vs veh, BCL10 / RFU, UHRF1BP1L / Fold change vs veh, UHRF1BP1L / RFU, BET1 / Fold change vs veh, BET1 / RFU, CNOT2 / Fold change vs veh, CNOT2 / RFU, ZNF268 / Fold change vs veh, ZNF268 / Fold change vs veh, ZNF507 / RFU, DGCR2 / Fold change vs veh, DGCR2 / RFU, WDSUB1 / Fold change vs veh, WDSUB1 / Fold change vs veh, HSP90B1 /// MIR3652 / RFU, ADSS / Fold change vs veh, ADSS / RFU, GK / Fold change vs veh, GK / RFU, ZNF148 / Fold change vs veh, ZNF148 / RFU, TAF9 / Fold change vs veh, TAF9 / RFU, SLC1A5 / Fold change vs veh, SLC1A5 / RFU, SLMO2 / Fold change vs veh, SLMO2 / RFU, ABCC4 / Fold change vs veh, ABCC4 / RFU, LOC101060439 /// RAP1B / Fold change vs veh, LOC101060439 /// RAP1B / RFU, RFX7 / Fold change vs veh, RFX7 / RFU, GTPBP10 / Fold change vs veh, GTPBP10 / RFU, CNEP1R1 / Fold change vs veh, CNEP1R1 / RFU, BIVM-ERCC5 /// ERCC5 / Fold change vs veh, BIVM-ERCC5 /// ERCC5 / RFU, ILF3 / Fold change vs veh, ILF3 / RFU 11762660_at / Fold change /veh 11762660_at / RFU VCAN (11757783_s_at) / Fold change /veh VCAN (11757783_s_at) / RFU DDX43 (11728927_at) / Fold change /veh DDX43 (11728927_at) / RFU KRT8 (11758188_x_at) / Fold change /veh KRT8 (11758188_x_at) / RFU NKD1 (11759106_at) / Fold change /veh NKD1 (11759106_at) / RFU SRD5A1 (11742802_a_at) / Fold change /veh SRD5A1 (11742802_a_at) / RFU TPSAB1 /// TPSB2 (11721975_s_at) / Fold change /veh TPSAB1 /// TPSB2 (11721975_s_at) / RFU GSTM3 (11746129_a_at) / Fold change /veh GSTM3 (11746129_a_at) / RFU IL23R (11737362_x_at) / Fold change /veh IL23R (11737362_x_at) / RFU TMEM51 (11727254_a_at) / Fold change /veh TMEM51 (11727254_a_at) / RFU PIWIL2 (11732686_x_at) / Fold change /veh PIWIL2 (11732686_x_at) / RFU ORM1 (11744905_x_at) / Fold change /veh ORM1 (11744905_x_at) / RFU CCDC152 (11743942_at) / Fold change /veh CCDC152 (11743942_at) / RFU ECM1 (11717891_a_at) / Fold change /veh ECM1 (11717891_a_at) / RFU IL23R (11748794_a_at) / Fold change /veh IL23R (11748794_a_at) / RFU TNFAIP8L3 (11732012_x_at) / Fold change /veh TNFAIP8L3 (11732012_x_at) / RFU MBOAT4 (11741988_at) / Fold change /veh MBOAT4 (11741988_at) / RFU 11764193_at / Fold change /veh 11764193_at / RFU TMEM53 (11763286_at) / Fold change /veh TMEM53 (11763286_at) / RFU MAGEB2 (11727129_at) / Fold change /veh MAGEB2 (11727129_at) / RFU TMEM200A (11744735_a_at) / Fold change /veh TMEM200A (11744735_a_at) / RFU CCDC152 (11751479_a_at) / Fold change /veh CCDC152 (11751479_a_at) / RFU FAM211A (11726209_a_at) / Fold change /veh FAM211A (11726209_a_at) / RFU RGS16 (11746705_a_at) / Fold change /veh RGS16 (11746705_a_at) / RFU VCAN (11755009_s_at) / Fold change /veh VCAN (11755009_s_at) / RFU RHOB (11743442_s_at) / Fold change /veh RHOB (11743442_s_at) / RFU RGS16 (11720943_a_at) / Fold change /veh RGS16 (11720943_a_at) / RFU RGS16 (11720944_at) / Fold change /veh RGS16 (11720944_at) / RFU, VPS4B / Fold change vs veh, VPS4B / RFU, CREB1 / Fold change vs veh, CREB1 / RFU, DNAJC13 / Fold change vs veh, DNAJC13 / RFU, GNAQ / Fold change vs veh, GNAQ / RFU, CDK5R1 / Fold change vs veh, CDK5R1 / RFU, ZRANB3 / Fold change vs veh, ZRANB3 / RFU, CUL4A / Fold change vs veh, CUL4A / RFU, CCNY / Fold change vs veh, CCNY / RFU, UFL1 / Fold change vs veh, UFL1 / RFU, COG3 / Fold change vs veh, COG3 / RFU, DIAPH2 / Fold change vs veh, DIAPH2 / RFU, SKA2 / Fold change vs veh, SKA2 / RFU, AFF3 / Fold change vs veh, AFF3 / RFU, LMF1 / Fold change vs veh, LMF1 / RFU, IPO11 / Fold change vs veh, IPO11 / RFU, DFFB / Fold change vs veh, DFFB / RFU, FOXP1 / Fold change vs veh, FOXP1 / RFU, CARD8 / Fold change vs veh, CARD8 / RFU, STRN3 / Fold change vs veh, STRN3 / RFU, ADK / Fold change vs veh, ADK / RFU, RASSF2 / Fold change vs veh, RASSF2 / RFU, WIPF1 / Fold change vs veh, WIPF1 / RFU, LARP1B / Fold change vs veh, LARP1B / RFU, RASA1 / Fold change vs veh, RASA1 / RFU, RB1 / Fold change vs veh, RB1 / RFU, PPFIA1 / Fold change vs veh, PPFIA1 / RFU, MAT2A / Fold change vs veh, MAT2A / RFU, CCT5 / Fold change vs veh, CCT5 / RFU, WDR92 / Fold change vs veh, WDR92 / RFU, CUX1 / Fold change vs veh, CUX1 / RFU, TTC7A / Fold change vs veh, TTC7A / RFU, TMEM135 / Fold change vs veh, TMEM135 / RFU, DEPTOR / Fold change vs veh, DEPTOR / RFU, CPM / Fold change vs veh, CPM / RFU, DNAJB6 / Fold change vs veh, DNAJB6 / RFU, CACNA2D3 / Fold change vs veh, CACNA2D3 / RFU, DTX4 / Fold change vs veh, DTX4 / RFU, TFCP2 / Fold change vs veh, TFCP2 / RFU, GMCL1 /// GMCL1P1 / Fold change vs veh, GMCL1 /// GMCL1P1 / RFU, AEBP2 / Fold change vs veh, AEBP2 / RFU, SNHG1 /// SNORD22 /// SNORD25 /// SNORD26 /// SNORD27 /// SNORD28 /// SNORD29 /// SNORD31 / Fold change vs veh, SNHG1 /// SNORD22 /// SNORD25 /// SNORD26 /// SNORD27 /// SNORD28 /// SNORD29 /// SNORD31 / Fold change (Aza/veh), C12orf56 (ProbeSet 11735607_a_at) / Fold change (ACY-1035/veh), C12orf56 (ProbeSet 11735607_a_at) / Fold change (Aza/veh), FGFR1OP (ProbeSet 11751329_s_at) / Fold change (ACY-1035/veh), FGFR1OP (ProbeSet 11751329_s_at) / Fold change (Aza/veh), VPS36 (ProbeSet 11739960_a_at) / Fold change (ACY-1035/veh), VPS36 (ProbeSet 11739960_a_at) / RFU SYPL1 (11715823_x_at) / Fold change /veh SYPL1 (11715823_x_at) / RFU IGFBP7 (11715501_s_at) / Fold change /veh IGFBP7 (11715501_s_at) / RFU REEP3 (11722064_at) / Fold change /veh REEP3 (11722064_at) / RFU IGLL1 (11728026_x_at) / Fold change /veh IGLL1 (11728026_x_at): dose or concentration left out as unconfirmed
Settings: ProbeSet 11741311_a_at; LIST B

## Nc1ncn([C@@H]2O[C@H](CO)[C@@H](O)[C@H]2O)c(=O)n1 [azacitidine]
  RFU, ZNF655: 32.83 RFU
